We go through two molecules from ChEMBL document CHEMBL5338747, “Discovery of Quaternized Pyridine-Thiazole-Pleuromutilin Derivatives with Broad-Spectrum Antibacterial and Potent Anti-MRSA Activity” (J Med Chem, 2023).

Data set [1] has as its system Mesomycoplasma hyopneumoniae. Put plainly: Anti-mycoplasma activity against Mycoplasma hyopneumoniae J NCTC10110 assessed as inhibition of mycoplasma growth measured after 7 days by broth microdilution method. The data set is classed as functional. The settings on record: J NCTC10110, 168 h, time 7 day. (Dilution methods test growth across graded concentrations, often in twofold steps.)

Data set [2] deals with Mesomycoplasma hyopneumoniae. In words: Anti-mycoplasma activity against Mycoplasma hyopneumoniae LH assessed as inhibition of mycoplasma growth measured after 7 days by broth microdilution method. The data set is classed as functional. Conditions: 168 h, time 7 day.
Another data set concerns Mesomycoplasma hyorhinis. Put plainly: Anti-mycoplasma activity against Mycoplasma hyorhinis BTS-7 NCTC10130 assessed as inhibition of mycoplasma growth measured after 7 days by broth microdilution method. The data set is classed as functional. Conditions: BTS-7 NCTC10130, 168 h, time 7 day.
The test system of data set [3] is Mycoplasmoides gallisepticum. Put plainly: Anti-mycoplasma activity against Mycoplasma gallisepticum R NCTC10115 assessed as inhibition of mycoplasma growth measured after 7 days by broth microdilution method. The data set is classed as functional. The settings on record: R NCTC10115, 168 h, time 7 day.
Another data set deals with Mycoplasmopsis synoviae. In words: Anti-mycoplasma activity against Mycoplasma synoviae WVU1853 NCTC10124 assessed as inhibition of mycoplasma growth measured after 7 days by broth microdilution method. The format is functional. Conditions: WVU1853 NCTC10124, 168 h, time 7 day.
Data set [4] concerns Mycoplasmoides pneumoniae. Put plainly: Anti-mycoplasma activity against Mycoplasma pneumoniae M129 ATCC15531 assessed as inhibition of mycoplasma growth measured after 7 days by broth microdilution method. The settings on record: M129 ATCC15531, 168 h, time 7 day. The data set is classed as functional.
The next data set relates to Metamycoplasma hominis. Put plainly: Anti-mycoplasma activity against Mycoplasma hominis PG-21 ATCC23114 assessed as inhibition of mycoplasma growth measured after 7 days by broth microdilution method. The format is functional. The settings on record: PG-21 ATCC23114, 168 h, time 7 day.
A further data set relates to Mycoplasma genitalium. In words: Anti-mycoplasma activity against Mycoplasma genitalium G37 ATCC33530 assessed as inhibition of mycoplasma growth measured after 7 days by broth microdilution method. Conditions: Mycoplasmoides genitalium, G37 ATCC33530, 168 h; time 7 day. The format is functional.
Data set [5] in a line: Aqueous solubility of the compound in physiological saline measured after 12 hrs by UV spectrophotometric analysis. The format is physicochemical.
In data set [6] the test system is Staphylococcus aureus. In words: Antibacterial activity against methicillin-resistant Staphylococcus aureus ATCC 33591 infected in Kunming mouse assessed as reduction in bacterial load in kidney at 10 mg/kg, ip for 2 days starting from 1 hr post-infection by hematoxylin-eosin staining based analysis. The format is functional, organism-based. The settings on record: time 2.0 day.

For data set [7], the system named is Staphylococcus aureus. Put plainly: Antibacterial activity against methicillin-resistant Staphylococcus aureus ATCC 33591 infected in Kunming mouse assessed as reduction in bacterial load in liver at 10 mg/kg, ip for 2 days starting from 1 hr post-infection by hematoxylin-eosin staining based analysis. The format is functional, organism-based. Conditions: time 2.0 day.

For data set [8], the system named is Staphylococcus aureus. In words: Antibacterial activity against methicillin-resistant Staphylococcus aureus ATCC 33591 infected in Kunming mouse assessed as reduction in bacterial load in lungs at 10 mg/kg, ip for 2 days starting from 1 hr post-infection by hematoxylin-eosin staining based analysis. The format is functional, organism-based. Conditions: time 2.0 day.

For data set [9], the system named is Staphylococcus aureus. Put plainly: Antibacterial activity against methicillin-resistant Staphylococcus aureus ATCC 33591 assessed as inhibition of bacterial growth incubated for 24 hrs by broth microdilution method. The format is functional.
Data set [10] deals with Staphylococcus aureus. Put plainly: Antibacterial activity against methicillin-resistant Staphylococcus aureus ATCC 43300 assessed as inhibition of bacterial growth incubated for 24 hrs by broth microdilution method. The format is functional.
In data set [11] the test system is Staphylococcus aureus. Put plainly: Antibacterial activity against […] assessed as inhibition of bacterial growth incubated for 24 hrs by broth microdilution method. The data set is classed as functional. Conditions: ATCC 29213.
In data set [12] the test system is Staphylococcus epidermidis. Put plainly: Antibacterial activity against methicillin-resistant Staphylococcus epidermidis ATCC 51625 assessed as inhibition of bacterial growth incubated for 24 hrs by broth microdilution method. The format is functional.
For the next data set, the system named is Acinetobacter baumannii. In words: Antibacterial activity against Acinetobacter baumannii ATCC 19606 assessed as inhibition of bacterial growth incubated for 24 hrs by broth microdilution method. The format is functional.
The test system of the next data set is Salmonella enterica. Put plainly: Antibacterial activity against Salmonella enterica ATCC 14028 assessed as inhibition of bacterial growth incubated for 24 hrs by broth microdilution method. The format is functional.
The test system of data set [13] is Escherichia coli. Put plainly: Antibacterial activity against Escherichia coli ATCC 25922 assessed as inhibition of bacterial growth incubated for 24 hrs by broth microdilution method. The format is functional.
Data set [14] concerns Escherichia coli. Put plainly: Antibacterial activity against Escherichia coli CMCC 44103 assessed as inhibition of bacterial growth incubated for 24 hrs by broth microdilution method. The format is functional.
Data set [15] can be described thus: Cytotoxicity against human HEK293 cells assessed as reduction in cell viability measured after 48 hrs by CCK8 assay. The format is toxicity, cell-based. Background: Formazan colour is commonly taken as a measure of viable cells.
Data set [16] in a line: Cytotoxicity against human A549 cells assessed as reduction in cell viability measured after 48 hrs by CCK8 assay. The format is toxicity, cell-based.
Data set [17] is described as follows: Cytotoxicity against human HepG2 cells assessed as reduction in cell viability measured after 48 hrs by CCK8 assay. The format is toxicity, cell-based.
Data set [18] relates to Staphylococcus aureus. In words: Disruption of biofilm formation in methicillin-resistant Staphylococcus aureus ATCC 33591 assessed as inhibition of biofilm formation at MIC measured after 24 hrs by crystal violet staining based analysis. The data set is classed as functional.
In data set [19] the test system is Escherichia coli. In words: Disruption of biofilm formation in Escherichia coli ATCC 25922 assessed as inhibition of biofilm formation at MIC measured after 24 hrs by crystal violet staining based analysis. The format is functional.
In data set [20] the test system is Staphylococcus aureus. Put plainly: Disruption of biofilm formation in methicillin-resistant Staphylococcus aureus ATCC 33591 assessed as inhibition of biofilm formation at 4XMIC measured after 24 hrs by crystal violet staining based analysis. The format is functional.
Data set [21] has as its system Escherichia coli. Put plainly: Disruption of biofilm formation in Escherichia coli ATCC 25922 assessed as inhibition of biofilm formation at 4XMIC measured after 24 hrs by crystal violet staining based analysis. The data set is classed as functional.
Data set [22] has as its system Staphylococcus aureus. Put plainly: Antibacterial activity against methicillin-resistant Staphylococcus aureus ATCC 33591 infected in ip dosed Kunming mouse assessed as protection against bacterial infection administered for 7 days starting from 1 hr post-infection. The format is functional.
Data set [23] has as its system Staphylococcus aureus. Put plainly: Antibacterial activity against methicillin-resistant Staphylococcus aureus ATCC 33591 infected in Kunming mouse assessed as animal survival rate at 5 mg/kg, ip for 7 days starting from 1 hr post-infection. The format is functional. Conditions: time 7.0 day.

≈ marks a conversion by molar mass, not a printed value. Calls of active or inactive are those of the source. The calls are words filed in the database; no cut-off is given here.

As to `C=C[C@]1(C)C[C@@H](OC(=O)CSCCN(CC)CC)[C@]2(C)[C@H](C)CC[C@]3(CCC(=O)[C@H]32)[C@@H](C)[C@@H]1O` [TIAMULIN], the MIC in [1] came to 0.03 µg/mL (≈ 0.0608 µM); in data set [2] it was 0.015 µg/mL (≈ 0.0304 µM); in the data set with Mesomycoplasma hyorhinis, 0.03 µg/mL (≈ 0.0608 µM); in data set [3], 0.125 µg/mL (≈ 0.253 µM); with Mycoplasmopsis synoviae it was 2 µg/mL (≈ 4.05 µM); in data set [4] it was 0.125 µg/mL (≈ 0.253 µM). In addition, the MIC with Metamycoplasma hominis was determined as 0.25 µg/mL (≈ 0.506 µM); in the data set on Mycoplasma genitalium it was 0.03 µg/mL (≈ 0.0608 µM). Besides, the solubility at 12 h in data set [5] turned out to be 227 µM (≈ 112 µg/mL).

Turning to `C=C[C@]1(C)C[C@@H](OC(=O)CSC(C)(C)CNC(=O)[C@H](N)C(C)C)[C@]2(C)[C@H](C)CC[C@]3(CCC(=O)[C@H]32)[C@@H](C)[C@@H]1O` [VALNEMULIN], the result in the data set with Staphylococcus aureus [6], with Staphylococcus aureus [7], in the data set with Staphylococcus aureus [8] and with Staphylococcus aureus [23] was Active. Moreover, the MIC in the data set on Staphylococcus aureus [9] came out at 128 µg/mL (≈ 227 µM); in the data set with Staphylococcus aureus [10] it was 8 µg/mL (≈ 14.2 µM); in the data set with Staphylococcus aureus [11], 4 µg/mL (≈ 7.08 µM); in data set [12], 64 µg/mL (≈ 113 µM); in the data set with Acinetobacter baumannii, 2 µg/mL (≈ 3.54 µM); with Salmonella enterica, 64 µg/mL (≈ 113 µM). The MIC with Escherichia coli [13] was 16 µg/mL (≈ 28.3 µM); with Escherichia coli [14], 64 µg/mL (≈ 113 µM). This molecule displayed a solubility at 12 h in data set [5] of 341 µM (≈ 193 µg/mL). Besides, the results for the CC50 at 48 h in data set [15], in data set [16] and in data set [17] were 65.4 µM, 88 µM and 87.3 µM, respectively. For the same molecule, the “inhibition (INH)” value in the data set on Staphylococcus aureus [18] was determined as 38.1%; in the data set on Escherichia coli [19] it was 26.52%; with Staphylococcus aureus [20], 68.59%; in the data set with Escherichia coli [21] it was 64.02%. Moreover, the ED50 in the data set with Staphylococcus aureus [22] (ATCC 33591, 168 h, time 7 day) came out at 12.3 mg/kg. For the same molecule, the Activity result with Staphylococcus aureus [22] (time 7.0 day) was “Dose-Dependent Effect”.

In general, MIC refers to the lowest concentration found to suppress growth. Broadly, the solubility is the dissolved amount per volume that the medium holds. High values mean a readily soluble substance, low ones a poorly soluble substance. Usually CC50 stands for the concentration at which the toxic effect on the cells reaches its halfway point. Usually ED50 stands for the dose that gives a 50% effect, or the effect in half of the subjects.
